Assay results taken from ChEMBL document CHEMBL3397020, “Synthesis of benzopentathiepin analogs and their evaluation as inhibitors of the phosphatase STEP” (Bioorg Med Chem Lett, 2015).

Experiments:
[1] = target: T1, Tyrosine-protein phosphatase non-receptor type 5 (Homo sapiens) (UniProt P54829)
T1 sequence (whole entry): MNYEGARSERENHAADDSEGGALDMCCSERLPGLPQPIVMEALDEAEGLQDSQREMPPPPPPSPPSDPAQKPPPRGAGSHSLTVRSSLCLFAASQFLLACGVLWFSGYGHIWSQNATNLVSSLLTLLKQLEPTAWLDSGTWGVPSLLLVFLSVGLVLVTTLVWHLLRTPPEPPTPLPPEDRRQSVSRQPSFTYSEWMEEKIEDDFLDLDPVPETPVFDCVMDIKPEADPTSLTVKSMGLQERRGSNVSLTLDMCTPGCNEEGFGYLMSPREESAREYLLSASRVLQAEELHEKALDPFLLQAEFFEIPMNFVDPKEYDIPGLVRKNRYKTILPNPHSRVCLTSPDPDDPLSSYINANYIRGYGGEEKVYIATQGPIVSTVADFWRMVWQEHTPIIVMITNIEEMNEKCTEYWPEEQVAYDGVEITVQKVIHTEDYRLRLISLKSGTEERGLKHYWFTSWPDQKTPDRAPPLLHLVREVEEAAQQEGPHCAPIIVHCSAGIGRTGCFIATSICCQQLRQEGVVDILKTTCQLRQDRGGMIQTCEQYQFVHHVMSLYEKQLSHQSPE
Description: Inhibition of STEP (unknown origin) assessed as second-order rate constant for enzyme inactivation in absence of GSH by p-nitrophenyl phosphate hydrolysis assay

[2] = target: T2, Tyrosine-protein phosphatase non-receptor type 5 (Homo sapiens, UniProt P54829); experiment: Inhibition of STEP (unknown origin) pre-incubated for 10 mins before addition of p-nitrophenyl phosphate substrate in presence of 1 mM GSH
T2 sequence (P54829 whole entry): T1 sequence (whole entry)

[3] = target: T2, Tyrosine-protein phosphatase non-receptor type 5; experiment: Inhibition of STEP (unknown origin) in absence of GSH by p-nitrophenyl phosphate hydrolysis assay
[4] = target: T2, Tyrosine-protein phosphatase non-receptor type 5; experiment: Inhibition of STEP (unknown origin) pre-incubated for 10 mins before addition of p-nitrophenyl phosphate substrate in absence of GSH

- Kinact [1]: 0.0378 s⁻¹
- IC50 [2]: 15000 nM
- Ki [3]: 235 nM
- IC50 [4]: 24 nM
Compound: O=C(Nc1cc(C(F)(F)F)cc2c1SSSSS2)C(F)(F)F
